Source: patent US4965280A, “Antifungal carbinols” (E. I. Du Pont de Nemours and Company, priority 1989, dated 1990)
Converted amounts (≈) assume the structure as drawn.

What was measured:
[1] = system: Plasmorpara viticola; test: Example I grape downy mildew; format: in vivo; settings: read-out: disease control rating, Ex. I
Summary of the method: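 First, each compound is taken up in acetone amounting to 6% of the final volume. It is then suspended in purified water containing 250 ppm of the polyhydric alcohol ester surfactant TREM 014, at 100 or 20 ppm. Finally, the suspension is sprayed onto grape seedlings until run-off.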

[2] = system: Cercosporidium personatum; test: Example B Peanut Late Leafspot; format: in vivo; settings: Nothopassalora personata; 100 PPM; read-out: disease control rating, Ex. B
Summary of the method: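 Foliar spray on peanut seedlings, to run-off; test rates 100 or 20 ppm. Formulation: acetone at 6% of final volume, water with 250 ppm polyhydric alcohol ester surfactant.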

[3] = system: Pythium aphanadermatum; test: Example J cucumber damping off; format: in vivo; settings: Pythium, 336 h; 5 kg/ha; read-out: disease control rating, Ex. J
Summary of the method: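 Seeds and soil were inoculated with a mix of sand, cereal and Pythium aphanadermatum mycelium, the fungus responsible for cucumber damping off. They were kept in a growth chamber at 30° C. for 14 days, and disease was then rated to assess control.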

[4] = system: Botrytis cinerea; test: Example C bean grey mold; format: in vivo; settings: Botrytis cinerea, 24 h, 100 PPM; read-out: disease control rating, Ex. C
Summary of the method: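 Broad bean seedlings; foliar spray to run-off. Cmpd 100 or 20 ppm in water + 250 ppm TREM 014, acetone 6% v/v final.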

[5] = system: Rhizoctonia solani; test: Example K cotton blight; format: in vivo; settings: 336 h, 5 kg/ha, read-out: disease control rating, Ex. K
Experimental: […] Seeds and soil were then inoculated with a mixture of sand, cereal and mycelium of the fungus Rhizoctonia solani, causal agent of cotton blight, and incubated in a growth chamber at 30° C. for 14 days. Disease ratings were then made.

[6] = system: Sclerotium rolfsii; test: Example M southern blight; format: in vivo; settings: Agroathelia rolfsii, 336 h; 5 kg/ha; read-out: disease control rating, Ex. M
Experimental: […] Seeds and soil were then inoculated with a mixture of sand, cereal and mycelium of the fungus Sclerotium rolfsii, causal agent of sourthern blight, and incubated in a growth chamber at 30° C. for 14 days. Disease ratings were then made.

[7] = system: Phytophthora infestans; test: whole plant or invertebrate; format: in vivo; settings: Phytophthora infestans, in Solanum lycopersicum, read-out: disease control rating, Ex. H, 100 PPM
[8] = system: Erysiphe graminis f. sp. tritici; test: Example D wheat powdery mildew; format: in vivo; settings: Blumeria graminis, 144 h; 100 PPM; read-out: disease control rating, Ex. D
Summary of the method: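 Spray to run-off on wheat seedlings; test suspension 100 or 20 ppm compound, acetone 6% v/v, 250 ppm polyhydric alcohol ester surfactant in water.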

[9] = system: Pyricularia oryzae; test: whole plant or invertebrate; format: in vivo; settings: Pyricularia oryzae, 120 h, read-out: disease control rating, Ex. E, 100 PPM
[10] = system: Fusarium oxysporum f. sp. cucumerinum; test: Example L cucumber wilt; format: in vivo; settings: 336 h, 5 kg/ha, read-out: disease control rating, Ex. L
Experimental: […] Seeds and soil were then inoculated with a mixture of sand, cereal and mycelium of the fungus Fusarium oxysporum f. sp. cucumerinum, causal agent of cucumber wilt, and incubated in a growth chamber at 30° C. for 14 days. Disease ratings were then made.

[11] = system: Venturia inaequalis; test: Example A apple scab; format: in vivo; settings: 100 PPM, read-out: disease control rating, Ex. A
Summary of the method: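 Acetone solution (6% of final vol.) → suspension at 100 or 20 ppm in water + 250 ppm TREM 014 surfactant; sprayed to run-off on apple seedlings.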

[12] = system: Puccinia recondita; test: Example G wheat leaf rust; format: in vivo; settings: 100 PPM, read-out: disease control rating, Ex. G
[13] = system: Rhizoctonia solani; test: Example F rice sheath blight; format: in vivo; settings: Rhizoctonia solani, 144 h, 100 PPM; read-out: disease control rating, Ex. F
Summary of the method: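 Spray to run-off on rice seedlings; test suspension 100 or 20 ppm compound in water + 250 ppm TREM 014 surfactant, acetone 6% final volume.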

[14] = system: Candida albicans ATCC 11651; test: In vitro antifungal MIC, microtiter broth dilution; settings: Candida albicans, ATCC11651, 24 h, read-out: MIC values, C. albicans, 30°, 24 hours
[15] = system: Aspergillus fumigatus ATCC 28214; test: In vitro antifungal MIC, microtiter broth dilution; settings: Aspergillus fumigatus, ATCC28214, 24 h, read-out: MIC values, A. fumigatus, 30°, 24 hours

| SMILES | pest or weed control at 100 ppm [1] [%] | pest or weed control at 100 ppm [2] [%] | pest or weed control at 5000 g/ha [3] [%] | pest or weed control at 100 ppm [4] [%] | pest or weed control at 5000 g/ha [5] [%] | pest or weed control at 5000 g/ha [6] [%] | pest or weed control at 100 ppm [7] [%] | pest or weed control at 100 ppm [8] [%] | pest or weed control at 100 ppm [9] [%] | pest or weed control at 5000 g/ha [10] [%] | pest or weed control at 100 ppm [11] [%] | pest or weed control at 100 ppm [12] [%] | pest or weed control at 100 ppm [13] [%] | MIC [14] [µg/mL] | MIC [15] [µg/mL] |
| --- | --- | --- | --- | --- | --- | --- | --- | --- | --- | --- | --- | --- | --- | --- | --- |
| N#CC[S+]([O-])c1ncnn1CC(O)(c1ccccc1F)C1(c2ccc(F)cc2)CO1 (centres unmarked) [Example 1468] | 46 | 0 | 0 | 0 | 60 | 0 | 0 | 77 | 2 | 0 | 40 | 93 | – | – | – |
| C=C(CO)C(O)(Cn1cncn1)c1ccc(Cl)cc1Cl (centres unmarked) [Example 449] | 51 | 0 | 0 | 24 | 0 | 0 | 0 | 0 | 76 | 0 | 71 | 30 | 13 | ≤ 0.4 | – |
| C=C(CO)C(O)(Cn1cncn1)c1ccc(Br)cc1 (centres unmarked) [Example 451] | 0 | 100 | 0 | 72 | 0 | 0 | 0 | 0 | 0 | 0 | 16 | 0 | 0 | 12.5 (≈ 38.6 µM) | – |
| C=C(CO)C(O)(Cn1cncn1)c1ccc(F)cc1 (centres unmarked) [Example 450] | 51 | 0 | 0 | 54 | 0 | 0 | 0 | 11 | 46 | 0 | – | 30 | 34 | > 100 | – |
| C=C(c1ccccc1)C(O)(Cn1cncn1)c1ccc(F)c(Cl)c1 (centres unmarked) [Example 605] | 0 | 99 | 0 | 32 | 0 | 0 | 0 | 81 | 0 | 0 | 70 | 100 | – | 0.2 (≈ 0.582 µM) | 100 (≈ 291 µM) |
| C=C(CO)C(O)(Cn1cncn1)c1ccc(-c2ccccc2)cc1 (centres unmarked) [Example 452] | 0 | 0 | 0 | 54 | 0 | 0 | 0 | 46 | 0 | 0 | 36 | 30 | 67 | > 100 | – |
| N#CCS(=O)(=O)c1ncnn1CC(O)(c1ccccc1F)C1(c2ccc(F)cc2)CO1 (centres unmarked) [Example 1469] | 89 | 84 | 0 | 81 | 80 | 0 | 24 | 77 | 2 | 70 | 68 | 100 | – | – | – |
| C=C(CO)C(O)(Cn1cncn1)c1ccc(Cl)cc1 (centres unmarked) [Example 447] | 24 | 0 | 0 | 24 | 0 | 0 | 0 | 46 | 46 | 0 | – | 30 | 0 | 3.2 (≈ 11.4 µM) | – |
| C=C(CN(C)C)C(O)(Cn1cncn1)c1ccc(Br)cc1 (centres unmarked) [Example 455] | 0 | 65 | 0 | 0 | 0 | 0 | 0 | 12 | 0 | 0 | 64 | 43 | 0 | 25 (≈ 71.2 µM) | – |
| C=C(c1cc(Cl)cc(Cl)c1)C(O)(Cn1cncn1)c1ccc(F)cc1F (centres unmarked) [Example 815] | 65 | 98 | 0 | 0 | 0 | 0 | 0 | 62 | 2 | 0 | 40 | 97 | – | 0.03 (≈ 0.0757 µM) | > 100 |
| C=C(CN(C)C)C(O)(Cn1cncn1)c1ccc(-c2ccccc2)cc1 (centres unmarked) [Example 456] | 0 | 0 | 0 | 58 | 0 | 0 | 9 | 53 | 98 | 0 | 82 | 96 | 0 | – | – |
| C=C(c1ccc(F)cc1)C(O)(Cn1ncnc1SCC#N)c1ccccc1F (centres unmarked) [Example 1451] | 79 | 84 | 0 | 48 | 0 | 0 | 0 | 77 | 2 | 0 | 86 | 93 | – | > 100 | > 100 |
